Test results taken from ChEMBL document CHEMBL4190345, “Synthesis and biological evaluation of new substituted thioglycolurils, their analogues and derivatives” (Eur J Med Chem, 2017).

How the values were obtained:
RD = assay: Cytotoxicity in human RD cells assessed as inhibition of cell growth incubated for 72 hrs by MTT assay; assay type: functional, cell-based
A549 = assay: Cytotoxicity in human A549 cells assessed as inhibition of cell growth incubated for 72 hrs by MTT assay; assay type: functional, cell-based; conditions: A549, 72 h
[1] = Cytotoxicity in human […] cells assessed as inhibition of cell growth incubated for 72 hrs by MTT assay; assay type: functional, cell-based
MCF7 = assay: Cytotoxicity in human MCF7 cells assessed as inhibition of cell growth incubated for 72 hrs by MTT assay; assay type: functional, cell-based; conditions: MCF7, 72 h
HEK293 = assay: Cytotoxicity in human HEK293 cells assessed as inhibition of cell growth incubated for 72 hrs by MTT assay; assay type: cell-based
Venturia inaequalis = assay: Fungicidal activity against Venturia inaequalis grown under potato-saccharose agar assessed as inhibition of mycelial radial growth at 30 mg/l incubated for 72 hrs; assay type: functional; conditions: read-out: GI
Rhizoctonia solani = assay: Fungicidal activity against Rhizoctonia solani grown under potato-saccharose agar assessed as inhibition of mycelial radial growth at 30 mg/l incubated for 72 hrs; assay type: functional; conditions: read-out: GI
Fusarium oxysporum = assay: Fungicidal activity against Fusarium oxysporum grown under potato-saccharose agar assessed as inhibition of mycelial radial growth at 30 mg/l incubated for 72 hrs; assay type: functional; conditions: read-out: GI
Fusarium verticillioides = assay: Fungicidal activity against Fusarium moniliforme grown under potato-saccharose agar assessed as inhibition of mycelial radial growth at 30 mg/l incubated for 72 hrs; assay type: functional; conditions: read-out: GI
Bipolaris sorokiniana = assay: Fungicidal activity against Bipolaris sorokiniana grown under potato-saccharose agar assessed as inhibition of mycelial radial growth at 30 mg/l incubated for 72 hrs; assay type: functional; conditions: read-out: GI
Sclerotinia sclerotiorum = assay: Fungicidal activity against Sclerotinia sclerotiorum grown under potato-saccharose agar assessed as inhibition of mycelial radial growth at 30 mg/l incubated for 72 hrs; assay type: functional; conditions: read-out: GI
Jurkat [2] = assay: Induction of apoptosis in human Jurkat cells assessed as viable cells level at 5 uM incubated for 24 hrs by annexin V and Alexa Fluor 488 dye staining based flow cytometry (reference value: 92.408%); assay type: functional
Jurkat [3] = assay: Induction of apoptosis in human Jurkat cells assessed as apoptotic cells level at 5 uM incubated for 24 hrs by annexin V and Alexa Fluor 488 dye staining based flow cytometry (reference value: 4.928%); assay type: functional
Jurkat [4] = assay: Induction of apoptosis in human Jurkat cells assessed as necrotic cells level at 5 uM incubated for 24 hrs by annexin V and Alexa Fluor 488 dye staining based flow cytometry (reference value: 2.616%); assay type: functional
Jurkat [5] = assay: Induction of apoptosis in human Jurkat cells assessed as damaged cells level at 5 uM incubated for 24 hrs by annexin V and Alexa Fluor 488 dye staining based flow cytometry (reference value: 0.048%); assay type: functional
Jurkat [6] = assay: Induction of apoptosis in human Jurkat cells assessed as damaged cells level at 5 uM incubated for 6 hrs by annexin V and Alexa Fluor 488 dye staining based flow cytometry (reference value: 0.07%); assay type: functional
Jurkat [7] = assay: Induction of apoptosis in human Jurkat cells assessed as necrotic cells level at 5 uM incubated for 24 hrs by annexin V and Alexa Fluor 488 dye staining based flow cytometry (reference value: 2.04%); assay type: functional
Jurkat [8] = assay: Induction of apoptosis in human Jurkat cells assessed as viable cells level at 5 uM incubated for 24 hrs by annexin V and Alexa Fluor 488 dye staining based flow cytometry (reference value: 95.27%); assay type: functional
Jurkat [9] = assay: Induction of apoptosis in human Jurkat cells assessed as apoptotic cells level at 5 uM incubated for 24 hrs by annexin V and Alexa Fluor 488 dye staining based flow cytometry (reference value: 2.62%); assay type: functional
[10] = Homo sapiens, HEK293, 72 h, read-out: IC50

SMILES	IC50 (RD) [µM]	IC50 (A549) [µM]	IC50 [1] [µM]	IC50 (MCF7) [µM]	IC50 (HEK293; [10]) [µM]	inhibition of growth at 30 µg/mL (Venturia inaequalis) [%]	inhibition of growth at 30 µg/mL (Rhizoctonia solani) [%]	inhibition of growth at 30 µg/mL (Fusarium oxysporum) [%]	inhibition of growth at 30 µg/mL (Fusarium verticillioides) [%]	inhibition of growth at 30 µg/mL (Bipolaris sorokiniana) [%]	inhibition of growth at 30 µg/mL (Sclerotinia sclerotiorum) [%]	Activity (Jurkat [2]) [%]	Apoptotic cells (Jurkat [3]) [%]	Necrotic cells (Jurkat [4]) [%]	Activity (Jurkat [5]) [%]	Activity (Jurkat [6]) [%]	Activity (Jurkat [7]) [%]	Viable cells (Jurkat [8]) [%]	Apoptotic cells (Jurkat [9]) [%]	IC50 (HEK293; hek293)
CCSC1=NC2C(N(CC)C(=O)N2CC)N1/N=C/C=C/c1ccccc1[N+](=O)[O-] (centres undefined)	2.45	> 100	5.07	30.7	221	10	44	12	22	39	12									
CCN1C(=O)N(CC)C2C1NC(=S)N2/N=C/C=C/c1ccccc1OC (centres undefined)	0.25	0.61	17.5	> 100	86.1	29	52	21	37	38	10	50.468	36.66	12.796	0.076	0.1	2.82	94.06	3.02	
COc1ccccc1/C=C/C=N/N1C(=S)NC2C1N(C)C(=O)N2c1ccccc1 (centres undefined)	0.02	> 100	0.012	0.26	0.23							56.076	26.98	16.808	0.136	0.14	2.39	94.37	3.1	
CN1C(=O)N(C)C2C1NC(=S)N2/N=C/C=C/c1ccccc1[N+](=O)[O-] (centres undefined)	32.4	2.72	3.76	1.76								56.128	34.62	9.164	0.088	0.06	2.16	94.6	3.18	Not Active
CC[C@@]1(O)C(=O)OCc2c1cc1n(c2=O)Cc2cc3ccccc3nc2-1 [CAMPTOTHECIN]	4.49	8.87	12.3	13.6	54.7							37.372	36.412	26.084	0.132	0.12	3.53	63.71	32.64	
